# Measured values taken from patent US20220062299A1, “USE OF GLUCOCORTICOID STEROIDS IN PREVENTING AND TREATING CONDITIONS OF MUSCLE WASTING, AGING AND METABOLIC DISORDER” (NORTHWESTERN UNIVERSITY, priority 2018, published 2022).
# Experiments:
# [1] = system: mdx mice; assay: Multi-modal imaging (FDG-PET, microCT, MR) of live mdx mice; type: in vivo, mouse; settings: weekly prednisone
# Excerpt: Multi-modal Imaging (FDG-PET, microCT, MR). Mice were anesthetized in an induction chamber with 3% isoflurane in oxygen, weighed, and then transferred to a dedicated imaging bed with isoflurane delivered via nosecone at 1-2%. Mice were placed in the prone position on a plastic bed and immobilized to minimize changes in position between scans. Respiratory signals were monitored using a digital monitoring system developed by Mediso (Mediso-USA, Boston, Mass.). Mice were imaged with a preclinical microPET/CT imaging system (nanoScan PET/CT, Mediso-USA, Boston, Mass.). CT data was acquired with a 2.2× magnification, <60 μm focal spot, 2×2 binning, with 480 projection views over a full circle, using 50 kVp/[…], with a 300 ms exposure time. The projection data was reconstructed with a voxel size of 250 μm and using filtered (Butterworth filter) backprojection software from Mediso. A bone mineral density standard (GRM GmbH, Moehrendorf, Germany) with hydroxyapatite (HA) from 0 to 1200 mg HA/cm^3 was used to convert the CT images from Hounsfield units to bone mineral density. The HA standard was imaged with the same parameters. For PET imaging, a target of 10 MBq of ^18F-fluordeoxyglucose (FDG) was injected intravenously after mice had been fasted for four hours. PET acquisition parameters were as follows: 1:1 coincidence detection and 30-minute acquisition time. MLEM reconstruction was used with CT for attenuation correction and scattering. Pixel size was set to 0.3×0.3 mm. After completion of PET/CT, each mouse was transferred to the MRI scanner and a reference standard consisting of one tube of canola oil and one tube of water was positioned above its back. MRI was performed on a 9.4T Bruker Biospec MRI system with a 30 cm bore, a 12 cm gradient insert, and an AutoPac laser positioned motorized bed (Bruker Biospin Inc, Billerica, Mass.). Respiratory signals and temperature were monitored using an MR-compatible physiologic monitoring system (SA Instruments, Stonybrook, N.Y.); a warm water circulating system was used to maintain body temperature. A 72 mm quadrature volume coil (Bruker Biospin, Inc, Billerica, Mass.) was used to image each mouse's whole body in two overlapping fields of view. First, the mouse was positioned with the thorax at the magnet's isocenter and imaged using a T1-weighted accelerated spin echo sequence (Rapid Acquisition with Relaxation Enhancement, RARE) with five pairs of interleaved axial slice stacks covering brain to mid-abdomen. TR was nominally set at 1000 ms; with respiratory gating the functional TR was approximately 1500 ms (range 1300-2000 ms). The following additional parameters were used: TE=6.25 ms, RARE factor 4, MTX=256×256, FOV 45×45 mm, 15 slices of 1 mm thick, 4 mm gap between slices, and 2 signal averages. […]
# [2] = system: Dysf-null mice; assay: Body weight, muscle mass, muscle function, plethysmography, echocardiography, Dysf-null mice, 32 weeks; type: in vivo, mouse; settings: weekly prednisone
# Procedure: Histology. Excised tissues (muscles, omental fat, heart) were placed in 10% formaldehyde (Cat #245-684; Fisher Scientific, Waltham, Mass.) for histologic processing. Seven μm sections from the center of paraffin-embedded muscles were stained with hematoxylin and eosin (H&E; cat #12013B, 1070C; Newcomer Supply, Middleton, Wis.) and Masson's trichrome (Cat #HT-15; Sigma-Aldrich; St. Louis, Mo.). Myofiber/adipocyte CSA quantitation was conducted on 400 myofibers/adipocytes per tissue per mouse. Imaging was performed using a Zeiss Axio Observer A1 microscope, using 10× and 20× (short-range) objectives. Brightfield pictures were acquired via Gryphax software (version 1.0.6.598; Jenoptik, Jena, Germany). Area quantitation was performed by means of ImageJ (Schneider et al., 2012). Sample processing, imaging and CSA quantitation were conducted blinded to treatment groups.
# Muscle function, whole-body plethysmography, echocardiography. Forelimb grip strength was monitored using a meter (Cat #1027SM; Columbus Instruments, Columbus, Ohio) blinded to treatment groups. Animals performed ten pulls with 5 seconds rest on a flat surface between pulls. Immediately before sacrifice, in situ tetanic force from tibialis anterior muscle was measured using a Whole Mouse Test System (Cat #1300A; Aurora Scientific, Aurora, ON, Canada) with a 1N dual-action lever arm force transducer (3000-LR, Aurora Scientific, Aurora, ON, Canada) in anesthetized animals (0.8 I/min of 1.5% isoflurane in 100% O2). […] Time of contraction was assessed as time to max tetanic value within the 0.0-0.5 sec range of each tetanic contraction, while time of relaxation was assessed as time to 90% min tetanic value within the 0.5-0.8 sec range of every tetanus. […] Data was recorded for a total of 15 minutes broken into 3 consecutive 5-minute periods. […] Cardiac function was assessed by echocardiography, which was conducted under anesthesia (0.8 L/min of 1.5% vaporized isoflurane in 100% O2) on mice between 2 and 5 days before sacrifice. […]
structure (smiles),measurement,setting,value
"C[C@]12C=CC(=O)C=C1CC[C@@H]1[C@@H]2C(=O)C[C@@]2(C)[C@H]1CC[C@]2(O)C(=O)CO [prednisone, Prednisone]",18FDG uptake in fat,[1],decreasing
same,fat mass accumulation (magnetic resonance),[1],did not increase
same,muscle uptake of 18FDG,[1],increase
same,"osteoporosis (bone mineral density, tomography)",[1],did not induce osteoporosis
same,body weight trend,[2],did not induce significant changes
same,muscle mass,[2],increased
same,"performance of limb muscles, respiratory muscles, and heart",[2],improved
